According to patent publication US7201899B2, “Materials and methods for management of hyperacute rejection in human xenotransplantation” (BresaGen Limited, priority 1994, dated 2007):

How the values were obtained:
[1] = system: pig kidney, heart and liver sections; experiment: Immunostaining of pig tissues with anti-GAL antibodies; assay type: binding; settings: pig renal cortex sections, proximal tubule brush borders; sugar 0.1 M
Experimental: Pig kidney was fixed in formalin and dehydrated before embedding in Paraplast. Pig heart and liver were fixed in paraformaldehyde-lysine-periodate fixative and snap frozen in O.C.T. embedding compound (10.24% w/w polyvinyl alcohol, 4.26% w/w polyethylene glycol, 85.50% w/w nonreactive ingredients; Tissue Tek®, Miles, Inc., Elkhart, Ind., USA). Four μm-thick sections of pig heart and liver and 2 μm-thick sections of kidney were incubated with purified anti-GAL antibodies (undiluted, 1:2 and 1:4) for 60 min. and then incubated with a fluorescein isothiocyanate (FITC)-conjugated sheep anti-human immunoglobulin F(ab′) fragment. (Silenus Laboratories, Hawthorn, Australia) (1:100) for 30 min. or a peroxidase-conjugated rabbit anti-human IgG (Dakopatts, Glostrup, Denmark) (1:50) for 60 min. Control sections were analyzed for autofluorescence, with the secondary antibody alone, or with the anti-GAL-depleted IgG or normal pig serum as the primary antibody. […] The specificity of the anti-GAL antibodies was tested by pre-incubating sections of pig renal cortex with a variety of sugars, including melibiose, lactose, sucrose and glucose at 0.1 M.

pig RBC = experiment: Hemagglutination of pig RBC by human serum: sugar inhibition; assay type: cell-based; settings: for Inhibitory Concentration: inhibition of pig RBC hemagglutination by pooled human AB serum; for concentration range inhibiting agglutination (in words): pig RBC agglutination by human serum
Experimental: The methods used to investigate the hemagglutination of pig red blood cells (RBC's) by human serum was adapted from the methods described by Galili, J. Exp. Med. 160: 1579–81 (1984) and Severson, Immunol. 96: 785–789 (1966).
A. Media/Solution Preparation • 1. Human Serum Albumin (HSA) (CSL, Melbourne, Australia) (5 mg/ml) was dissolved in PBS, filter sterilized, and stored at 4° C. • 2. Preparation of sugars: • 1 M stock solutions of sugar were prepared by dissolving the amount indicated in 100 ml of PBS. Sodium azide was added (0.02%) and solutions stored at 4° C.
B. Preparation of Pig RBC'S • 1. Heparinised pig blood (Animal Resources, Clayton, Australia) is centrifuged at 800 RPM for 10 min to pellet the RBC. • 2. The RBC pellet is washed by resuspension in PBS (10 ml) and recentrifugation (repeated 3 times). After the final wash, the RBC pellet is resuspended in 10 ml PBS. • 3. A 0.5% solution of RBC's is prepared by adding 50 ul RBC solution (from step 2, above) to 10 ml PBS containing 0.5 g/100 ml of HSA.
C. Preparation of 96-well Microtitre Plates (Titretek. USA) • 1. Add 25 ul of PBS to each well. • 2. Add 25 ul of pooled human AB serum (CSL, Melbourne, Australia) to column 1 and serially dilute by removing 25 ul from column 1 and adding to column 2, then repeating by sequentially removing and adding 25 ul from and to each well across the plate, finally discarding 25 μl from column 11 and adding no serum to column 12. • 3. Add 25 ul of sugar solution to each row in decreasing concentrations down rows. No sugar solution is added to the final row. • 4. Incubate at 4° C. overnight and then at 37° C. for 30 min. • 5. Add 50 ul of 0.5% pig RBC to each well; vortex and incubate at room temperature for 2 hours. Determine agglutination visually. II. Results

PK-1 and PAE's cells = experiment: Antibody staining and FACS analysis of porcine cells; assay type: binding; settings: for inhibition of anti-GAL IgM and/or IgG staining of porcine cells by sugar: anti-GAL antibodies pre-incubated with sugar (0.1 M) at 37° C. for 30 min
Experimental: C. Antibody Staining and FACS Analysis • 1) Add 2 ml TED to a 75 cm^2 culture flask containing PK-1 or PAE'S, and incubate at room temperature for 10 min. • 2) Add RPMI plus 10% FCS (5 ml) to neutralize trypsin. • 3) Pellet cells by centrifugation (700 g, 5 min, • 4) Wash cells by resuspension and centrifugation in Hanks Buffer (×2). • 5) Pellet cells by centrifugation (700 g, 5 min, 4° C.). • 6) Resuspend cell pellet in Hanks buffer containing purified anti-GAL antibodies, GAL-depleted serum or GAL-depleted IgG and incubate at 4° C. for 60 min. All antibodies were used undiluted, or diluted 1:2 or 1:4 in Hanks buffer. • 7) Add 1 ml of Hanks Buffer, pellet cells by centrifugation and aspirate off supernatant. • 8) Resuspend pellet in FITC-labelled sheep-anti-human IgG Fab2 or IgM Fab2 (Silenus, Hawthorn, Australia) diluted 1:80 in Hanks buffer. • 9) Incubate for 30 min. at 4° C. • 10) Wash three times with Hanks buffer; resuspend pellet from final wash in 0.5 ml Hanks buffer. • 11) Analyze stained samples using a FACScan II (Becton Dickinson) according to the manufacturer's instructions.
The specificity of the anti-GAL antibody binding to porcine cells was determined by examining the ability of sugars of various structures to inhibit antibody binding. In these competition studies the anti-GAL antibodies were pre-incubated with sugar (0.1 M) at 37° C. for 30 min before adding to the cells.

## OC[C@H]1O[C@@](CO)(O[C@H]2O[C@H](CO)[C@@H](O)[C@H](O)[C@H]2O)[C@@H](O)[C@@H]1O [Sucrose, α-D-Glucopyranosyl β-D-fructofuranoside]
[1]
  inhibition of anti-GAL antibody binding to pig tissue by sugar: not inhibited
Pig RBC
  Inhibitory Concentration: >10^−1M
  concentration range inhibiting agglutination (in words): only inhibitory when very high concentrations were used

## OC[C@H]1O[C@H](OC[C@H]2O[C@H](OC[C@H]3O[C@H](O[C@]4(CO)O[C@H](CO)[C@@H](O)[C@@H]4O)[C@H](O)[C@@H](O)[C@@H]3O)[C@H](O)[C@@H](O)[C@H]2O)[C@H](O)[C@@H](O)[C@H]1O [Stachyose, α-D-gal-[1->6]-α-D-Glc-[1->2]-β-D-Fru]
PK-1 and PAE's cells
  inhibition of anti-GAL IgM and/or IgG staining of porcine cells by sugar: inhibited
Pig RBC
  Inhibitory Concentration: 0.002 M
  concentration range inhibiting agglutination (in words): μM to mM range

## O=C[C@H](O)[C@@H](O)[C@@H](O)[C@H](O)CO [Galactose, D(+)galactose]
PK-1 and PAE's cells
  inhibition of anti-GAL IgM and/or IgG staining of porcine cells by sugar: inhibited
PK-1 and PAE's cells; anti-GAL antibody pre-incubated with sugar, versus anti-GAL antibody alone
  decrease of anti-GAL antibody staining of PAE's (FIG. 1): approximately 10 fold less
Pig RBC
  Inhibitory Concentration: 0.002 M
  concentration range inhibiting agglutination (in words): μM to mM range
